From PubChem BioAssay AID1745844 (Carcinogenic Potency Database (CPDB), 2022)

Tested on: rodent lifetime carcinogenesis bioassay, tumor incidence TD50
Assay: carcinogenic potency in animals, long-term in vivo studies, CPDB compilation (AID 1745844)
Settings: in drinking water

In the case of `Cc1cc(-c2ccc(N)c(C)c2)ccc1N`, the TD50 (mouse, strain BALB/cStCrlfC3Hf/Nctr, females, site: lung, lesion: adenocarcinoma, dosed 52 weeks, study length 52 weeks) is reported as 147 mg/kg/day, the TD50 (mouse, strain BALB/cStCrlfC3Hf/Nctr, females, site: lung, lesion: adenocarcinoma, dosed 78 weeks, study length 78 weeks) is reported as 168 mg/kg/day and the TD50 (mouse, strain BALB/cStCrlfC3Hf/Nctr, females, site: lung, lesion: several types, types named in the paper, dosed 52 weeks, study length 52 weeks) is reported as 28.1 mg/kg/day. The TD50 (mouse, strain BALB/cStCrlfC3Hf/Nctr, females, site: lung, lesion: several types, types named in the paper, dosed 78 weeks, study length 78 weeks) was 295 mg/kg/day, the TD50 (mouse, strain BALB/cStCrlfC3Hf/Nctr, males, site: lung, lesion: adenocarcinoma, dosed 52 weeks, study length 52 weeks) was 123 mg/kg/day and the TD50 (mouse, strain BALB/cStCrlfC3Hf/Nctr, males, site: lung, lesion: adenocarcinoma, dosed 112 weeks, study length 112 weeks) was 50.1 mg/kg/day. The TD50 (mouse, strain BALB/cStCrlfC3Hf/Nctr, males, site: lung, lesion: several types, types named in the paper, dosed 52 weeks, study length 52 weeks) was 684 mg/kg/day, the TD50 (mouse, strain BALB/cStCrlfC3Hf/Nctr, males, site: lung, lesion: several types, types named in the paper, dosed 78 weeks, study length 78 weeks) was 423 mg/kg/day and the TD50 (mouse, strain BALB/cStCrlfC3Hf/Nctr, males, site: lung, lesion: several types, types named in the paper, dosed 112 weeks, study length 112 weeks) was 28.6 mg/kg/day. For the same compound, the TD50 (rat, strain Fischer 344, females, site: Zymbal's gland, lesion: adenoma + adenoma, bilateral + carcinoma + carcinoma, bilateral, dosed 60 weeks, study length 60 weeks) was 1.27 mg/kg/day, the TD50 (rat, strain Fischer 344, females, site: Zymbal's gland, lesion: adenoma + adenoma, bilateral, dosed 60 weeks, study length 60 weeks) was 3.08 mg/kg/day and the TD50 (rat, strain Fischer 344, females, site: Zymbal's gland, lesion: carcinoma + carcinoma, bilateral, dosed 60 weeks, study length 60 weeks) was 2 mg/kg/day. The TD50 (rat, strain Fischer 344, females, site: all sites, lesion: mononuclear-cell leukemia, dosed 60 weeks, study length 60 weeks) was 6.46 mg/kg/day, the TD50 (rat, strain Fischer 344, females, site: any site (literature study), lesion: several types, types named in the paper, dosed 60 weeks, study length 60 weeks) was 0.462 mg/kg/day and the TD50 (rat, strain Fischer 344, females, site: brain, lesion: astrocytoma, malignant + malignant glioma + meningioma, malignant, dosed 60 weeks, study length 60 weeks) was 15.4 mg/kg/day. The TD50 (rat, strain Fischer 344, females, site: clitoral gland + colon + duodenum + ileum + jejunum + liver + lung + mammary gland + pharynx + rectum + skin + tongue + Zymbal's gland, lesion: adenoma + adenoma, bilateral + carcinoma + carcinoma, bilateral + adenocarcinoma + adenomatous polyp + mucinous adenocarcinoma + mucin, dosed 60 weeks, study length 60 weeks) was 0.418 mg/kg/day, the TD50 (rat, strain Fischer 344, females, site: clitoral gland, lesion: adenoma + adenoma, bilateral + carcinoma + carcinoma, bilateral, dosed 60 weeks, study length 60 weeks) was 0.847 mg/kg/day and the TD50 (rat, strain Fischer 344, females, site: clitoral gland, lesion: adenoma + adenoma, bilateral, dosed 60 weeks, study length 60 weeks) was 1.31 mg/kg/day. It also gave a TD50 (rat, strain Fischer 344, females, site: clitoral gland, lesion: carcinoma + carcinoma, bilateral, dosed 60 weeks, study length 60 weeks) of 2.58 mg/kg/day, a TD50 (rat, strain Fischer 344, females, site: colon + rectum, lesion: adenocarcinoma + adenomatous polyp, dosed 60 weeks, study length 60 weeks) of 6.65 mg/kg/day and a TD50 (rat, strain Fischer 344, females, site: colon + rectum, lesion: adenomatous polyp, dosed 60 weeks, study length 60 weeks) of 7.11 mg/kg/day. The TD50 (rat, strain Fischer 344, females, site: duodenum + ileum + jejunum, lesion: adenocarcinoma + adenomatous polyp + mucinous adenocarcinoma + mucinous cystadenocarcinoma, dosed 60 weeks, study length 60 weeks) was 11 mg/kg/day, the TD50 (rat, strain Fischer 344, females, site: duodenum + ileum + jejunum, lesion: adenocarcinoma + mucinous adenocarcinoma + mucinous cystadenocarcinoma, dosed 60 weeks, study length 60 weeks) was 15.4 mg/kg/day and the TD50 (rat, strain Fischer 344, females, site: liver, lesion: hepatocellular adenoma + hepatocellular carcinoma + neoplastic nodule, dosed 60 weeks, study length 60 weeks) was 6.97 mg/kg/day. The TD50 (rat, strain Fischer 344, females, site: liver, lesion: hepatocellular carcinoma + neoplastic nodule, dosed 60 weeks, study length 60 weeks) was 6.97 mg/kg/day, the TD50 (rat, strain Fischer 344, females, site: liver, lesion: neoplastic nodule, dosed 60 weeks, study length 60 weeks) was 7.62 mg/kg/day and the TD50 (rat, strain Fischer 344, females, site: lung, lesion: alveolar/bronchiolar adenoma + alveolar/bronchiolar carcinoma, dosed 60 weeks, study length 60 weeks) was 11.9 mg/kg/day. It also gave a TD50 (rat, strain Fischer 344, females, site: lung, lesion: alveolar/bronchiolar adenoma, dosed 60 weeks, study length 60 weeks) of 13.6 mg/kg/day, a TD50 (rat, strain Fischer 344, females, site: mammary gland, lesion: adenocarcinoma + fibroadenoma, dosed 60 weeks, study length 60 weeks) of 5.77 mg/kg/day and a TD50 (rat, strain Fischer 344, females, site: mammary gland, lesion: adenocarcinoma, dosed 60 weeks, study length 60 weeks) of 8.33 mg/kg/day. For the same compound, the TD50 (rat, strain Fischer 344, females, site: pharynx + tongue, lesion: squamous-cell carcinoma + squamous-cell papilloma, dosed 60 weeks, study length 60 weeks) was 3.2 mg/kg/day, the TD50 (rat, strain Fischer 344, females, site: pharynx + tongue, lesion: squamous-cell carcinoma, dosed 60 weeks, study length 60 weeks) was 11.8 mg/kg/day and the TD50 (rat, strain Fischer 344, females, site: pharynx + tongue, lesion: squamous-cell papilloma, dosed 60 weeks, study length 60 weeks) was 4.26 mg/kg/day. For the same compound, the TD50 (rat, strain Fischer 344, females, site: skin, lesion: basal-cell adenoma + basal-cell carcinoma, dosed 60 weeks, study length 60 weeks) was 3.8 mg/kg/day, the TD50 (rat, strain Fischer 344, females, site: skin, lesion: basal-cell adenoma, dosed 60 weeks, study length 60 weeks) was 5.77 mg/kg/day and the TD50 (rat, strain Fischer 344, females, site: skin, lesion: basal-cell carcinoma, dosed 60 weeks, study length 60 weeks) was 11.6 mg/kg/day. The TD50 (rat, strain Fischer 344, females, site: skin, lesion: squamous-cell carcinoma + squamous-cell papilloma, dosed 60 weeks, study length 60 weeks) was 3.17 mg/kg/day, the TD50 (rat, strain Fischer 344, females, site: skin, lesion: squamous-cell carcinoma, dosed 60 weeks, study length 60 weeks) was 5.56 mg/kg/day and the TD50 (rat, strain Fischer 344, females, site: skin, lesion: squamous-cell papilloma, dosed 60 weeks, study length 60 weeks) was 7.06 mg/kg/day. For the same compound, the TD50 (rat, strain Fischer 344, males, site: Zymbal's gland, lesion: adenoma + adenoma, bilateral + carcinoma + carcinoma, bilateral, dosed 58 weeks, study length 60 weeks) was 1.12 mg/kg/day, the TD50 (rat, strain Fischer 344, males, site: Zymbal's gland, lesion: adenoma + adenoma, bilateral, dosed 58 weeks, study length 60 weeks) was 2.38 mg/kg/day and the TD50 (rat, strain Fischer 344, males, site: Zymbal's gland, lesion: carcinoma + carcinoma, bilateral, dosed 58 weeks, study length 60 weeks) was 1.93 mg/kg/day. The TD50 (rat, strain Fischer 344, males, site: adrenal medulla, lesion: pheochromocytoma, benign, dosed 58 weeks, study length 60 weeks) was 10.6 mg/kg/day, the TD50 (rat, strain Fischer 344, males, site: any site (literature study), lesion: several types, types named in the paper, dosed 58 weeks, study length 60 weeks) was 0.334 mg/kg/day and the TD50 (rat, strain Fischer 344, males, site: brain, lesion: glioma malignant, focal, mild + malignant glioma + meningioma, malignant, dosed 58 weeks, study length 60 weeks) was 26.1 mg/kg/day. For the same compound, the TD50 (rat, strain Fischer 344, males, site: cecum + colon + duodenum + ileum + jejunum + large intestine + liver + lung + multiple organs + pharynx + preputial gland + rectum + skin + tongue, lesion: adenomatous polyp + adenocarcinoma + mucinous cystadenocarcinoma + hepatocellular carcinoma + neoplastic nodule + alveolar/bronchi, dosed 58 weeks, study length 60 weeks) was 0.346 mg/kg/day, the TD50 (rat, strain Fischer 344, males, site: cecum + colon + large intestine + rectum, lesion: adenomatous polyp + adenocarcinoma + mucinous cystadenocarcinoma, dosed 58 weeks, study length 60 weeks) was 3.76 mg/kg/day and the TD50 (rat, strain Fischer 344, males, site: cecum + colon + rectum, lesion: adenomatous polyp, dosed 58 weeks, study length 60 weeks) was 4.87 mg/kg/day. It also gave a TD50 (rat, strain Fischer 344, males, site: colon + large intestine + rectum, lesion: adenocarcinoma + mucinous cystadenocarcinoma, dosed 58 weeks, study length 60 weeks) of 14.4 mg/kg/day, a TD50 (rat, strain Fischer 344, males, site: duodenum + ileum + jejunum, lesion: mucinous cystadenocarcinoma + adenocarcinoma + adenomatous polyp, dosed 58 weeks, study length 60 weeks) of 6.99 mg/kg/day and a TD50 (rat, strain Fischer 344, males, site: duodenum + ileum + jejunum, lesion: mucinous cystadenocarcinoma + adenocarcinoma, dosed 58 weeks, study length 60 weeks) of 7.79 mg/kg/day. It also gave a TD50 (rat, strain Fischer 344, males, site: liver, lesion: hepatocellular adenoma + hepatocellular carcinoma + neoplastic nodule, dosed 58 weeks, study length 60 weeks) of 0.898 mg/kg/day, a TD50 (rat, strain Fischer 344, males, site: liver, lesion: hepatocellular carcinoma + neoplastic nodule, dosed 58 weeks, study length 60 weeks) of 0.898 mg/kg/day and a TD50 (rat, strain Fischer 344, males, site: liver, lesion: hepatocellular carcinoma, dosed 58 weeks, study length 60 weeks) of 2.76 mg/kg/day. For the same compound, the TD50 (rat, strain Fischer 344, males, site: liver, lesion: neoplastic nodule, dosed 58 weeks, study length 60 weeks) was 1.12 mg/kg/day, the TD50 (rat, strain Fischer 344, males, site: lung, lesion: alveolar/bronchiolar adenoma + alveolar/bronchiolar carcinoma, dosed 58 weeks, study length 60 weeks) was 4.93 mg/kg/day and the TD50 (rat, strain Fischer 344, males, site: lung, lesion: alveolar/bronchiolar adenoma, dosed 58 weeks, study length 60 weeks) was 5.47 mg/kg/day. It also gave a TD50 (rat, strain Fischer 344, males, site: multiple organs, lesion: mesothelioma, malignant, dosed 58 weeks, study length 60 weeks) of 9.45 mg/kg/day, a TD50 (rat, strain Fischer 344, males, site: pharynx + tongue, lesion: squamous-cell carcinoma + squamous-cell papilloma, dosed 58 weeks, study length 60 weeks) of 8.47 mg/kg/day and a TD50 (rat, strain Fischer 344, males, site: pharynx + tongue, lesion: squamous-cell carcinoma, dosed 58 weeks, study length 60 weeks) of 26.7 mg/kg/day. It also gave a TD50 (rat, strain Fischer 344, males, site: preputial gland, lesion: adenoma + carcinoma, dosed 58 weeks, study length 60 weeks) of 3.96 mg/kg/day, a TD50 (rat, strain Fischer 344, males, site: preputial gland, lesion: adenoma, dosed 58 weeks, study length 60 weeks) of 4.94 mg/kg/day and a TD50 (rat, strain Fischer 344, males, site: skin, lesion: basal-cell adenoma + basal-cell carcinoma, dosed 58 weeks, study length 60 weeks) of 0.5 mg/kg/day. It also gave a TD50 (rat, strain Fischer 344, males, site: skin, lesion: basal-cell adenoma, dosed 58 weeks, study length 60 weeks) of 0.534 mg/kg/day, a TD50 (rat, strain Fischer 344, males, site: skin, lesion: basal-cell carcinoma, dosed 58 weeks, study length 60 weeks) of 8.85 mg/kg/day and a TD50 (rat, strain Fischer 344, males, site: skin, lesion: keratoacanthoma, dosed 58 weeks, study length 60 weeks) of 4.58 mg/kg/day. The TD50 (rat, strain Fischer 344, males, site: skin, lesion: sebaceous adenoma, dosed 58 weeks, study length 60 weeks) was 5.62 mg/kg/day, the TD50 (rat, strain Fischer 344, males, site: skin, lesion: squamous-cell carcinoma + squamous-cell papilloma, dosed 58 weeks, study length 60 weeks) was 1.55 mg/kg/day and the TD50 (rat, strain Fischer 344, males, site: skin, lesion: squamous-cell carcinoma, dosed 58 weeks, study length 60 weeks) was 2.8 mg/kg/day. The TD50 (rat, strain Fischer 344, males, site: skin, lesion: squamous-cell papilloma, dosed 58 weeks, study length 60 weeks) was 3.28 mg/kg/day.
